Settings: for mass density: Vibrating tube method; for vapor or sublimation pressure: Closed cell (Static) method

CCC [propane]
Fluid (supercritical or subcritical phases)
Settings	mass density [kg/m3]
240 K, 527.3 kPa	570.78
240 K, 1044.8 kPa	571.46
240 K, 1522.4 kPa	572.08
240 K, 1978.3 kPa	572.68
240 K, 2477.9 kPa	573.32
240 K, 2999.9 kPa	573.98
240 K, 3513 kPa	574.62
240 K, 4045.7 kPa	575.29
240 K, 4504.5 kPa	575.85
240 K, 4957.8 kPa	576.41
240 K, 5475.7 kPa	577.04
240 K, 6018.3 kPa	577.69
240 K, 6523.2 kPa	578.3
240 K, 7043.3 kPa	578.91
250 K, 513.8 kPa	558.73
250 K, 1008.1 kPa	559.47
250 K, 1508.3 kPa	560.2
250 K, 2008.3 kPa	560.93
250 K, 2524.1 kPa	561.67
250 K, 3016.9 kPa	562.38
250 K, 3503.7 kPa	563.05
250 K, 3993.1 kPa	563.74
250 K, 4478.5 kPa	564.4
250 K, 5045.1 kPa	565.17
250 K, 5495.4 kPa	565.78
250 K, 5999.9 kPa	566.46
250 K, 6543.5 kPa	567.17
250 K, 7010.3 kPa	567.78
260 K, 506.6 kPa	546.1
260 K, 1013.8 kPa	546.96
260 K, 1503.5 kPa	547.77
260 K, 1999.7 kPa	548.6
260 K, 2504.5 kPa	549.42
260 K, 3012.1 kPa	550.24
260 K, 3513.3 kPa	551.04
260 K, 4020 kPa	551.84
260 K, 4498.9 kPa	552.58
260 K, 5014.5 kPa	553.38
260 K, 5513.9 kPa	554.12
260 K, 6028.2 kPa	554.89
260 K, 6522.8 kPa	555.62
260 K, 7048.9 kPa	556.4
270 K, 504.7 kPa	532.93
270 K, 1012.9 kPa	533.91
270 K, 1510.4 kPa	534.87
270 K, 2005.4 kPa	535.83
270 K, 2499.6 kPa	536.75
270 K, 3017.5 kPa	537.7
270 K, 3497.1 kPa	538.57
270 K, 4018.8 kPa	539.5
270 K, 4488.2 kPa	540.32
270 K, 5023.8 kPa	541.26
270 K, 5504.7 kPa	542.05
270 K, 6021.1 kPa	542.91
270 K, 6525.8 kPa	543.74
270 K, 7024.1 kPa	544.55
280 K, 1000 kPa	520.1
280 K, 1466.1 kPa	521.15
280 K, 1964.2 kPa	522.28
280 K, 2513 kPa	523.49
280 K, 3032.9 kPa	524.61
280 K, 3519.3 kPa	525.6
280 K, 4049.7 kPa	526.68
280 K, 4527.5 kPa	527.65
280 K, 4963.1 kPa	528.5
280 K, 5443.4 kPa	529.45
280 K, 5982.8 kPa	530.51
280 K, 6522.6 kPa	531.56
280 K, 7034.7 kPa	532.51
290 K, 1499.4 kPa	506.71
290 K, 2004.4 kPa	508.04
290 K, 2510 kPa	509.33
290 K, 2998.9 kPa	510.56
290 K, 3484 kPa	511.74
290 K, 4018.1 kPa	513.03
290 K, 4476.9 kPa	514.12
290 K, 5036.3 kPa	515.41
290 K, 5531.4 kPa	516.52
290 K, 5957.4 kPa	517.46
290 K, 6525.4 kPa	518.7
290 K, 7049.2 kPa	519.81
300 K, 1517.7 kPa	491.19
300 K, 2015.2 kPa	492.77
300 K, 2519.2 kPa	494.32
300 K, 3032.3 kPa	495.86
300 K, 3486.3 kPa	497.18
300 K, 4036.8 kPa	498.73
300 K, 4462.1 kPa	499.91
300 K, 4937 kPa	501.23
300 K, 5518.9 kPa	502.75
300 K, 6063.5 kPa	504.2
300 K, 6496.7 kPa	505.29
300 K, 7004.4 kPa	506.54
310 K, 1514.4 kPa	473.96
310 K, 2018.8 kPa	475.98
310 K, 2491.2 kPa	477.78
310 K, 3012.9 kPa	479.7
310 K, 3515 kPa	481.48
310 K, 4040.6 kPa	483.29
310 K, 4528.9 kPa	484.91
310 K, 5029.4 kPa	486.52
310 K, 5529.3 kPa	488.08
310 K, 6046.3 kPa	489.64
310 K, 6510.1 kPa	491.02
310 K, 6991.8 kPa	492.41
320 K, 2011.4 kPa	457.17
320 K, 2513.8 kPa	459.66
320 K, 3002.1 kPa	461.96
320 K, 3495.1 kPa	464.17
320 K, 4025.8 kPa	466.44
320 K, 4519.6 kPa	468.46
320 K, 5017.9 kPa	470.44
320 K, 5536.8 kPa	472.4
320 K, 6024.8 kPa	474.19
320 K, 6523.4 kPa	475.95
320 K, 7008.9 kPa	477.63
330 K, 2033.9 kPa	435.23
330 K, 2537.4 kPa	438.74
330 K, 3032 kPa	441.91
330 K, 3546.3 kPa	445
330 K, 3909.1 kPa	447.05
330 K, 3995.4 kPa	447.53
330 K, 4495.8 kPa	450.17
330 K, 4996.1 kPa	452.66
330 K, 5488.6 kPa	455.01
330 K, 6010.6 kPa	457.38
330 K, 6499.8 kPa	459.5
330 K, 6985.1 kPa	461.52
340 K, 3024.2 kPa	417.87
340 K, 3507.8 kPa	422.07
340 K, 4014 kPa	426.05
340 K, 4501.8 kPa	429.56
340 K, 5027.1 kPa	433.06
340 K, 5516.7 kPa	436.1
340 K, 5985 kPa	438.83
340 K, 6494.7 kPa	441.64
340 K, 6964.1 kPa	444.1
350 K, 3541.2 kPa	393.49
350 K, 4011.9 kPa	399.51
350 K, 4505.9 kPa	404.94
350 K, 5024.8 kPa	409.94
350 K, 5521.6 kPa	414.24
350 K, 6027.1 kPa	418.22
350 K, 6491.4 kPa	421.59
350 K, 6978.1 kPa	424.88
360 K, 4043.5 kPa	362.08
360 K, 4527.8 kPa	372.52
360 K, 5043 kPa	380.99
360 K, 5524.7 kPa	387.51
360 K, 6048.5 kPa	393.63
360 K, 6529.9 kPa	398.56
360 K, 6953.8 kPa	402.5
370 K, 779.8 kPa	11.91
370 K, 1089.1 kPa	17.21
370 K, 1515.9 kPa	25.15
370 K, 2081.6 kPa	37.08
370 K, 2783.7 kPa	55.36
370 K, 4325.4 kPa	287.46
370 K, 4521.7 kPa	312.65
370 K, 4996.9 kPa	336.94
370 K, 5527.4 kPa	352.01
370 K, 5998 kPa	361.65
370 K, 6504.8 kPa	369.98
370 K, 7066.4 kPa	377.66
380 K, 813.8 kPa	12.27
380 K, 1223.8 kPa	19.12
380 K, 1564.3 kPa	25.22
380 K, 2032 kPa	34.39
380 K, 2630.4 kPa	47.9
380 K, 3340.1 kPa	67.96
380 K, 4059 kPa	97.16
380 K, 4059.9 kPa	97.18
380 K, 4060.6 kPa	97.22
380 K, 4556.5 kPa	131.82
380 K, 5335.4 kPa	273.87
380 K, 5530.3 kPa	291.64
380 K, 6044.5 kPa	318.37
380 K, 6541.5 kPa	333.99
380 K, 7012.1 kPa	344.89

Liquid
Settings	mass density [kg/m3]	vapor or sublimation pressure [kPa]
240 K	570.28	147.9
250 K	558.29	217.7
260 K	545.77	310.3
270 K	532.67	429.6
290 K	504.75	768.6
300 K	489.48	997.6
310 K	472.96	1272.1
320 K	455	1600.7
330 K	434.9	1988.8
340 K	411.92	2429.7
350 K	384.39	2948
360 K	347.97	3552.2

— the NIST ThermoML archive (doi:10.1021/je049672l)
